# Laboratory results published in a melting point compilation (Tetko et al.; mined from patent text by program, amines drawn as free bases though some values may be those of a salt).
row,SMILES,melting point [°C]
1,CCCCCCCCCCCCc1ccccc1C(Sc1ncc(C(=O)O)n1C)C(O)CCC(=O)O (configuration not stated),79 to 80
2,CCn1nc(-c2ncc(N)nc2-c2ccccc2)ccc1=O,227 to 229
3,CC(C)(C)CNc1cc(Cl)nc(Cl)n1,77 to 79
4,Nc1nc2ccc(S(=O)(=O)n3c(CCC(=O)O)cc4cc(Cl)ccc43)cc2o1,242 to 249
5,CCc1cc(NCc2ccc(-c3ccccc3C#N)cc2)n2ncc(Cl)c2n1,152 to 154
6,N#CCCCCCN1CCc2c(c3cc(F)ccc3n2-c2ccc(F)cc2)C1,90 to 98
7,CCCSc1ccc(Oc2ccc(Cl)c(Cl)c2)nc1C#N,67 to 69
8,O=c1c(-c2nnn[nH]2)cnc2c(Cl)cccn12,313 to 315
9,CC(C)N1CC[C@@H](Oc2ccc(-n3ccc(OCc4ccc(Cl)cn4)cc3=O)cc2)C1,154 to 155
10,CCCc1nc2c(N)nc(C)c(C)c2n1CC(C)(C)NS(C)(=O)=O,85 to 93
11,CCN(CC)C(=O)c1ccoc1-c1ccc(N(C)C)cc1,73 to 74
12,CCOC(=O)c1nccc(Oc2ccc3c(C(=O)O)cccc3c2)n1,214 to 217
13,NS(=O)(=O)c1cccc(C(=O)CCl)c1,118
14,CC(C(=O)O)c1ccc(CC2CCCCC2O)c(Cl)c1 (configuration not stated),123 to 127
15,CCOC(=O)c1cc(=O)c2c(OCC(O)COc3ccc(C#N)c(OC)c3)cccc2o1 (configuration not stated),143 to 145
16,Cc1ccc(S(=O)(=O)OCC2COc3ccc4nccnc4c3O2)cc1 (configuration not stated),124 to 127
17,CC(C)(C)C(=O)C(Cc1cccnc1)Oc1ccc(Cl)cc1 (configuration not stated),77 to 79
18,Cc1ccc2c(c1)c(=O)n1nc(C(=O)O)cc1n2C,269
19,COc1ccc2c(c1)Sc1c(cc(OC)c(O)c1Br)N2,185
20,O=C(CCC(=O)N1CCC[C@H]1C(=O)O)c1ccc(F)cc1,127 to 129
21,CCOC(=O)c1cn2c3c(cc(C)cc3c1=O)C1CCCCC12 (configuration not stated),107 to 109
22,COc1nc(CO)ccc1CN1CC1C#N (configuration not stated),68 to 70
23,O=C1Nc2ccc(F)c(F)c2C(=O)N2CC[C@@H]12,> 250
24,Cc1cccc(-c2nc3cccnn3c2-c2ccnc(N(C(=O)C3CC3)C(=O)C3CC3)c2)c1,173 to 175

row,SMILES,melting point [°C]
1,O=C(O)CCCOc1ccc(C23CC4CC(CC(C4)C2)C3)cc1,170 to 172
2,N#Cc1cnc2cc(-c3ccc(CCN4CCOCC4)s3)ccc2c1Nc1ccc(Cl)cc1Cl,168 to 169
3,COc1ccc2c(c1)CCC1C2CCC2(C)C(NCCc3cccn3C)CCC12 (configuration not stated),141 to 143
4,COc1ccc(C=C2CCN(C(=O)OCc3ccccc3)CC2)cc1[N+](=O)[O-],107 to 108
5,Fc1ccc(C#Cc2nccs2)cc1,78 to 79
6,N#Cc1cnccc1CCCOc1cccnc1Oc1cccc(Cl)c1,146 to 150
7,CC(C)(C)NC(=O)[C@@H]1CC(=O)CN1C(=O)OC(C)(C)C,147 to 149
8,Cc1noc(NS(=O)(=O)c2ccc(I)cc2)c1Br,166 to 173
9,O=C1C2CCCC2Nc2ccccc2N1Cc1ccccc1 (configuration not stated),172 to 173
10,O=C(Nc1ccc(Oc2ccccc2)cc1)N1CCN(c2nccc3ccccc23)CC1,122 to 123
11,CCCC(=O)C1=C(O)CC(c2cc([N+](=O)[O-])ccc2F)CC1=O (configuration not stated),132
12,N#Cc1cn(C(CO)CCc2ccccc2)cn1 (configuration not stated),111 to 115
13,O=C(NO)c1ccc(C(=O)NOCc2cccc3ccccc23)cc1,192 to 194
14,COC(=O)c1nsc2ccc(-n3c(=O)cc(C(F)(F)F)n(C)c3=O)cc12,153 to 156
15,Clc1cn2c(Cl)cnc2cn1,115 to 116
16,CC(C)c1cc(C(C)C)c(CC(=O)NS(=O)(=O)Oc2c(C(C)C)cc(N(CCO)CCO)cc2C(C)C)c(C(C)C)c1,143 to 146
17,ClCCN1C2C=C(c3ccc4ccccc4c3)CC1CC2 (configuration not stated),122 to 123
18,COc1cc(N2CCOCC2)ccc1Nc1nc(Nc2ccc3c(c2)CCC(=O)CC3)ncc1Cl,212 to 215
19,O=S(=O)(c1ccccc1)n1c(SC(F)(F)F)nc(-c2ccc(F)cc2)c1-c1ccc(F)cc1,154 to 155
20,CCCCCCC(C(=O)O)n1c(C(F)(F)F)nc2cc(-c3ccccc3-c3nn[nH]n3)ccc21 (configuration not stated),128 to 130
21,Oc1ccc2cc(Cc3c(Cc4ccccc4)sc4ccccc34)ccc2c1Br,110 to 112
22,Cc1nc2cccc([N+](=O)[O-])c2s1,120 to 121
23,Cc1ccc(S(=O)(=O)c2ncccc2NC(=O)N[C@@H](Cc2ccc(NC(=O)c3c(Cl)cccc3Cl)cc2)C(=O)O)cc1,180
24,O=S(=O)(NC(Cc1ccc(O)cc1)c1ccccc1)c1ccc(Cl)cc1 (configuration not stated),174 to 178

row,SMILES,melting point [°C]
1,CCOC(=O)C1COc2ccc(NC(C)=O)cc2O1 (configuration not stated),138 to 140
2,CC(=O)Oc1c(C)cc(C2C(=O)Oc3c2cc(C(C)(C)C)cc3C(C)(C)C)cc1C (configuration not stated),165 to 166
3,CCc1nc2c(cnn2CC)c(NC2CCOCC2)c1CNC(=O)c1cccc(C(=O)NCc2ccc(C)c(-c3cccc(CN4CCCN(C)CC4)c3)c2)c1,107 to 109
4,COC(=O)c1cc(Cl)ccc1-n1cnnc1C,86 to 88.5
5,Cc1ccc(OC2SCC(O)C(O)C2O)c(-c2c(C)noc2C)n1 (configuration not stated),70 to 84
6,O=S(=O)(Nc1ccccc1OCc1csc(-c2ccccc2)n1)C(F)(F)F,123 to 125
7,Nc1cc2c(cc1[N+](=O)[O-])CCO2,140 to 142
8,O=C(Cl)COc1ccc([N+](=O)[O-])cc1,84 to 85
9,O=C(Oc1ccccc1)OC1C2=C(SCCS2)C(=O)N1c1ccc(Cl)cn1 (configuration not stated),178
10,CNCC1COC2(CCN(c3nc4c(cc3F)C=C(C(=O)O)CN4c3ccc(F)cc3F)CC2)O1 (configuration not stated),188 to 193
11,CC(C)OC(=O)C1=C(c2ccccc2)C(c2ccccc2)OC1=O (configuration not stated),120 to 122
12,NC(=S)NCc1ccccc1Cl,120 to 122
13,O=C1c2cc([N+](=O)[O-])cc([N+](=O)[O-])c2OC12CC2,158 to 161
14,CCCCCCCCCCCCCCCCCC(=O)Oc1cc(C)c(O)c(C(C)(C)C)c1,64 to 65.5
15,CN1CCCC1=NC(=O)Nc1c(Br)cc(Br)cc1Br,165 to 168
16,N#Cc1ccccc1/C=C/C=O,107 to 110
17,COC(=O)c1sc2ccccc2c1OCC(C)=O,57 to 58
18,COc1cc(-c2nc(NC(=O)c3cc4cc(C)ccc4n3CC(=O)O)sc2CCC2CCCCC2)c(OC)cc1Cl,204 to 208
19,N#CCCC(CCC(=O)O)(c1ccccc1)c1ccccc1,119 to 120
20,CCCc1c(OCCCCCCc2cccc(OCCCCCCCC(=O)O)c2CCC(=O)O)ccc2c1OCCC2=O,79 to 81
21,COc1ccn2nc(-c3ccccc3)c(-c3ccc(=O)[nH]n3)c2c1,246 to 247
22,COc1ccc(N2CCN(c3ncc(N)cn3)CC2)cc1,157
23,CCN(C(=O)OC)c1cccc(-c2ccc3nnc(C)n3n2)c1,176 to 178
24,CC(Br)CCC(C)(N)P(O)O (configuration not stated),146 to 148
